Reference: ChEMBL document CHEMBL5036304, “One Atom Makes All the Difference: Getting a Foot in the Door between SOS1 and KRAS” (J Med Chem, 2021)
Activity calls are given as the source filed them. The calls are words filed in the database; no cut-off is given here.

What was measured:
DLD-1 [1] = experiment: Induction of apoptosis in human DLD-1 cells harboring KRAS G13D mutant assessed as cleaved-PRAP at 0.1 nM measured after 24 to 48 hrs; type: functional, cell-based; details: time 24-48 hrs
[2] = Metabolic stability in rat hepatocytes in presence of 50% serum; type: ADME, cell-based, Hepatocyte
[3] = Oral bioavailability in rat; type: ADME, organism-based; details: in vivo
[4] = Anticancer activity against human DLD-1 cells xenografted rat model assessed as tumor growth inhibition at 50 mg/kg measured; type: functional; details: read-out: TGI
DLD-1 [5] = experiment: Induction of apoptosis in human DLD-1 cells harboring KRAS G13D mutant assessed as cleaved-PRAP measured after 24 to 48 hrs; type: functional, cell-based; details: time 24-48 hrs
[6] = Metabolic stability in human hepatocytes in presence of 50% serum; type: ADME, cell-based, Hepatocyte
[7] = Oral bioavailability in mouse; type: ADME, organism-based; details: in vivo
[8] = Metabolic stability in mouse hepatocytes in presence of 50% serum; type: ADME, cell-based, Hepatocyte
[9] = Efflux ratio of apparent permeability from basolateral to apical side over apical to basolateral side in human Caco-2 cells at 10 uM
[10] = target: Epidermal growth factor receptor (Homo sapiens, UniProt P00533); experiment: Inhibition of EGFR (unknown origin)
Chain of Epidermal growth factor receptor (P00533 whole entry): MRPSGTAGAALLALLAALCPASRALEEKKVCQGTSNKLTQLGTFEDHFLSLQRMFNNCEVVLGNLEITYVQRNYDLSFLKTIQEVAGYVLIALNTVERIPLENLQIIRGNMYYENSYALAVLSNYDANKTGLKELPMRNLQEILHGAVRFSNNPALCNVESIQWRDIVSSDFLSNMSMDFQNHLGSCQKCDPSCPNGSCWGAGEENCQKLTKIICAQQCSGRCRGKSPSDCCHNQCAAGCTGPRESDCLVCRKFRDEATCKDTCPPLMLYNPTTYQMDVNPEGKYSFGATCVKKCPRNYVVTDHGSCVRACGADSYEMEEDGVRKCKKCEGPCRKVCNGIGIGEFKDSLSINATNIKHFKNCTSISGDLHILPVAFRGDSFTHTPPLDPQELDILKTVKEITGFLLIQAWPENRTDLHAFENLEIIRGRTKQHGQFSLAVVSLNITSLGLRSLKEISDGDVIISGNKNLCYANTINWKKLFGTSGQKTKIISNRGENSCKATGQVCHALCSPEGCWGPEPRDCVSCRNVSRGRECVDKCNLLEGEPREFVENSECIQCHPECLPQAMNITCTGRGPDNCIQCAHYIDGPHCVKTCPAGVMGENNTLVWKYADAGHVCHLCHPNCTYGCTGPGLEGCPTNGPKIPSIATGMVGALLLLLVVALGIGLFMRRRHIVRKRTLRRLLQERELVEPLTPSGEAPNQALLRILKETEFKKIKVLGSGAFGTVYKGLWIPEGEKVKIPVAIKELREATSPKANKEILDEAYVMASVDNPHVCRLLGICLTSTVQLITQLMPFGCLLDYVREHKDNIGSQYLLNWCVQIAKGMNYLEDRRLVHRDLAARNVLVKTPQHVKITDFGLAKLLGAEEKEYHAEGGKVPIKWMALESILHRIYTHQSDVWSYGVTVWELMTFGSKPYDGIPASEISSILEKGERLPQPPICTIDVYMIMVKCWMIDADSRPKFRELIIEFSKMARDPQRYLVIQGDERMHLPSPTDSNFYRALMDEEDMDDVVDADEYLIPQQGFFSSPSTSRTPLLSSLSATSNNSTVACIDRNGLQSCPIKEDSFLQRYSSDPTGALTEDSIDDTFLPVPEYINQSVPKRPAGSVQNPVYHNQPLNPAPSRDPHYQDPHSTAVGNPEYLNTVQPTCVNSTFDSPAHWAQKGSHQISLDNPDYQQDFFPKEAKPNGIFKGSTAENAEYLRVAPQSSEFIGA

[11] = target: T1, Son of sevenless homolog 1 (Homo sapiens, UniProt Q07889); experiment: Binding affinity to SOS1 (unknown origin) assessed as dissociation constant by SPR analysis
T1 sequence (Q07889 whole entry): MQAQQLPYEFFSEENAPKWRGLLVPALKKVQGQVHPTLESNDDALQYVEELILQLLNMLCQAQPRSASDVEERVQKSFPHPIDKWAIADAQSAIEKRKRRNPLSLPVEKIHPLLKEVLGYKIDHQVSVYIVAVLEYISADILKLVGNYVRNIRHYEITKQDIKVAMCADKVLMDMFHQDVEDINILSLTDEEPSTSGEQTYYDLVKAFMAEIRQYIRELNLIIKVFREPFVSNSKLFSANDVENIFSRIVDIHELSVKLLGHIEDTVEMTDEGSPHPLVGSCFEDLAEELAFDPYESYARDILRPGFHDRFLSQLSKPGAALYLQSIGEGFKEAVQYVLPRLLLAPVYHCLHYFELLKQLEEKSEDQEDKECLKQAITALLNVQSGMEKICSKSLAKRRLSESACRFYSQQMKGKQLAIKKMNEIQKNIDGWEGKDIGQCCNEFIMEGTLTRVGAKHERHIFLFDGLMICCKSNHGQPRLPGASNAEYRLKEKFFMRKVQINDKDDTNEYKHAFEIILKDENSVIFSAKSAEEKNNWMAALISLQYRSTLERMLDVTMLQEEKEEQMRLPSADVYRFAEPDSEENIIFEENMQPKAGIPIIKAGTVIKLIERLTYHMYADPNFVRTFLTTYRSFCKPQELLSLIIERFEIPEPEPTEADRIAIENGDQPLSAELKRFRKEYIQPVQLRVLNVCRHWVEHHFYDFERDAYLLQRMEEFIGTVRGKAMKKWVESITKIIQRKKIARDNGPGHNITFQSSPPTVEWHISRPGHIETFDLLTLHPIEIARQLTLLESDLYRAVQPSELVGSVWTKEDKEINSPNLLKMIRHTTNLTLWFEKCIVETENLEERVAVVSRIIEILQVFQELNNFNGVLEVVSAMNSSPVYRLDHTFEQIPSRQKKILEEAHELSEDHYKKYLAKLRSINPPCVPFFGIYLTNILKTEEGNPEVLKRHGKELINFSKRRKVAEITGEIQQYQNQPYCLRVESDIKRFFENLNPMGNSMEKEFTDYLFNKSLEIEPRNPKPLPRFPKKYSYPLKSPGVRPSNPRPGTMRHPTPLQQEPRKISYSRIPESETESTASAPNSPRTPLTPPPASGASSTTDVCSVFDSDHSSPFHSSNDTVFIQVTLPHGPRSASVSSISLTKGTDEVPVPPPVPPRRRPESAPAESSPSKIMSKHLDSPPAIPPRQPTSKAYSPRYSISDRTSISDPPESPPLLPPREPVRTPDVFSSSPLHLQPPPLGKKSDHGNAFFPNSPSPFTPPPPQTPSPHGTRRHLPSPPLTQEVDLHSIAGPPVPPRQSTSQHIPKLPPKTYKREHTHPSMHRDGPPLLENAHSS

SOS1-KRAS [12] = target: T2, SOS1-KRAS (Homo sapiens, UniProt Q07889); experiment: Inhibition of SOS1/KRAS G12D mutant (unknown origin) protein-protein interaction using GDP nucleotide as substrate measured after 30 mins by Alphascreen assay
SOS1-KRAS [13] = target: T2, SOS1-KRAS; experiment: Activation of SOS1/KRAS G12D mutant (unknown origin) protein-protein interaction using GDP nucleotide as substrate measured after 30 mins by Alphascreen assay
DLD-1 [14] = experiment: Induction of apoptosis in human DLD-1 cells harboring KRAS G13D mutant assessed as cleaved-PRAP at 100 nM measured after 24 to 48 hrs; type: functional, cell-based; details: time 24-48 hrs

CC(=O)Nc1cccc(-n2c(=O)n(C3CC3)c(=O)c3c(Nc4ccc(I)cc4F)n(C)c(=O)c(C)c32)c1
Activity (DLD-1 [1]): Active

COc1cc2nc(C)nc(N[C@H](C)c3cc(N)cc(C(F)(F)F)c3)c2cc1O[C@H]1CCOC1
Stability [2]: 28% | bioavailability [3]: 100% | inhibition in vivo at 50 mg/kg [4]: 37% | Activity (DLD-1 [5]): Active | Stability [6]: 14% | bioavailability [7]: 100% | Stability [8]: 45%

COc1cc2nc(C)nc(N[C@H](C)c3cccc(C(F)(F)F)c3)c2cc1OC
efflux ratio at 10 µM [9]: 0.3 | IC50 [10]: > 20000 nM | Kd [11]: 104 nM | IC50 (SOS1-KRAS [12]): 106 nM

COc1cc2nc(C)nc(N[C@H](C)c3cc(N)cc(C(F)(F)F)c3)c2cc1OC
efflux ratio at 10 µM [9]: 0.7 | Kd [11]: 16 nM | IC50 (SOS1-KRAS [12]): 15 nM

Cc1nc(N[C@H](C)c2cc(N)cc(C(F)(F)F)c2)c2cc(Cl)ccc2n1
Kd [11]: 1490 nM | IC50 (SOS1-KRAS [12]): 3830 nM

Cc1nc(N[C@H](C)c2cc(N)cc(C(F)(F)F)c2)c2cc(F)ccc2n1
EC50 (SOS1-KRAS [13]): 939 nM | Kd [11]: 751 nM

COc1cc2nc(C)nc(N[C@H](C)c3cccc(S(N)(=O)=O)c3)c2cc1OC
efflux ratio at 10 µM [9]: 50 | IC50 [10]: > 20000 nM | Kd [11]: 16 nM | IC50 (SOS1-KRAS [12]): 56 nM

COc1ccc2nc(C)nc(N[C@H](C)c3cc(N)cc(C(F)(F)F)c3)c2c1
Kd [11]: 24 nM | IC50 (SOS1-KRAS [12]): 33 nM

COc1cc2nc(C)nc(N[C@H](C)c3cccc(N)c3)c2cc1OC
efflux ratio at 10 µM [9]: 1.3 | Kd [11]: 123 nM | IC50 (SOS1-KRAS [12]): 355 nM

COc1cc2nc(C)nc(N[C@H](C)c3ccccc3)c2cc1OC
efflux ratio at 10 µM [9]: 0.6 | IC50 [10]: 2800 nM | Kd [11]: 469 nM | IC50 (SOS1-KRAS [12]): 453 nM

COc1cc2ncnc(N[C@H](C)c3ccccc3)c2cc1OC
IC50 [10]: 1 nM | Kd [11]: 301 nM | IC50 (SOS1-KRAS [12]): 1050 nM

N[C@@H](Cc1c[nH]c2ccccc12)C(=O)NC1CCN(Cc2c[nH]c3ccccc23)CC1
EC50 (SOS1-KRAS [13]): 11100 nM | Kd [11]: 19300 nM

CN(C)C/C=C/C(=O)Nc1cc2c(Nc3ccc(F)c(Cl)c3)ncnc2cc1O[C@H]1CCOC1 [AFATINIB]
inhibition in vivo at 50 mg/kg [4]: 7% | Activity (DLD-1 [14]): Active

CC(C)c1noc2ncc(C(=O)NC(C)c3cccc(S(N)(=O)=O)c3)cc12 (stereo unspecified)
Kd [11]: 937 nM | IC50 (SOS1-KRAS [12]): 1190 nM
